Source: patent US20240398784A1, “C-LINKED ISOQUINOLINE AMIDES AS LRRK2 INHIBITORS, PHARMACEUTICAL COMPOSITIONS, AND USES THEREOF” (Merck Sharp & Dohme LLC, priority 2021, published 2024)

molecular target: LRRK2 G2019S (Homo sapiens, UniProt Q5S007, G2019S); test: LRRK2 G2019S Km ATP LanthaScreen assay; format: biochemical; conditions: read-out: LRRK2 pIC50 (converted)
Sequence (Q5S007 whole entry G2019S): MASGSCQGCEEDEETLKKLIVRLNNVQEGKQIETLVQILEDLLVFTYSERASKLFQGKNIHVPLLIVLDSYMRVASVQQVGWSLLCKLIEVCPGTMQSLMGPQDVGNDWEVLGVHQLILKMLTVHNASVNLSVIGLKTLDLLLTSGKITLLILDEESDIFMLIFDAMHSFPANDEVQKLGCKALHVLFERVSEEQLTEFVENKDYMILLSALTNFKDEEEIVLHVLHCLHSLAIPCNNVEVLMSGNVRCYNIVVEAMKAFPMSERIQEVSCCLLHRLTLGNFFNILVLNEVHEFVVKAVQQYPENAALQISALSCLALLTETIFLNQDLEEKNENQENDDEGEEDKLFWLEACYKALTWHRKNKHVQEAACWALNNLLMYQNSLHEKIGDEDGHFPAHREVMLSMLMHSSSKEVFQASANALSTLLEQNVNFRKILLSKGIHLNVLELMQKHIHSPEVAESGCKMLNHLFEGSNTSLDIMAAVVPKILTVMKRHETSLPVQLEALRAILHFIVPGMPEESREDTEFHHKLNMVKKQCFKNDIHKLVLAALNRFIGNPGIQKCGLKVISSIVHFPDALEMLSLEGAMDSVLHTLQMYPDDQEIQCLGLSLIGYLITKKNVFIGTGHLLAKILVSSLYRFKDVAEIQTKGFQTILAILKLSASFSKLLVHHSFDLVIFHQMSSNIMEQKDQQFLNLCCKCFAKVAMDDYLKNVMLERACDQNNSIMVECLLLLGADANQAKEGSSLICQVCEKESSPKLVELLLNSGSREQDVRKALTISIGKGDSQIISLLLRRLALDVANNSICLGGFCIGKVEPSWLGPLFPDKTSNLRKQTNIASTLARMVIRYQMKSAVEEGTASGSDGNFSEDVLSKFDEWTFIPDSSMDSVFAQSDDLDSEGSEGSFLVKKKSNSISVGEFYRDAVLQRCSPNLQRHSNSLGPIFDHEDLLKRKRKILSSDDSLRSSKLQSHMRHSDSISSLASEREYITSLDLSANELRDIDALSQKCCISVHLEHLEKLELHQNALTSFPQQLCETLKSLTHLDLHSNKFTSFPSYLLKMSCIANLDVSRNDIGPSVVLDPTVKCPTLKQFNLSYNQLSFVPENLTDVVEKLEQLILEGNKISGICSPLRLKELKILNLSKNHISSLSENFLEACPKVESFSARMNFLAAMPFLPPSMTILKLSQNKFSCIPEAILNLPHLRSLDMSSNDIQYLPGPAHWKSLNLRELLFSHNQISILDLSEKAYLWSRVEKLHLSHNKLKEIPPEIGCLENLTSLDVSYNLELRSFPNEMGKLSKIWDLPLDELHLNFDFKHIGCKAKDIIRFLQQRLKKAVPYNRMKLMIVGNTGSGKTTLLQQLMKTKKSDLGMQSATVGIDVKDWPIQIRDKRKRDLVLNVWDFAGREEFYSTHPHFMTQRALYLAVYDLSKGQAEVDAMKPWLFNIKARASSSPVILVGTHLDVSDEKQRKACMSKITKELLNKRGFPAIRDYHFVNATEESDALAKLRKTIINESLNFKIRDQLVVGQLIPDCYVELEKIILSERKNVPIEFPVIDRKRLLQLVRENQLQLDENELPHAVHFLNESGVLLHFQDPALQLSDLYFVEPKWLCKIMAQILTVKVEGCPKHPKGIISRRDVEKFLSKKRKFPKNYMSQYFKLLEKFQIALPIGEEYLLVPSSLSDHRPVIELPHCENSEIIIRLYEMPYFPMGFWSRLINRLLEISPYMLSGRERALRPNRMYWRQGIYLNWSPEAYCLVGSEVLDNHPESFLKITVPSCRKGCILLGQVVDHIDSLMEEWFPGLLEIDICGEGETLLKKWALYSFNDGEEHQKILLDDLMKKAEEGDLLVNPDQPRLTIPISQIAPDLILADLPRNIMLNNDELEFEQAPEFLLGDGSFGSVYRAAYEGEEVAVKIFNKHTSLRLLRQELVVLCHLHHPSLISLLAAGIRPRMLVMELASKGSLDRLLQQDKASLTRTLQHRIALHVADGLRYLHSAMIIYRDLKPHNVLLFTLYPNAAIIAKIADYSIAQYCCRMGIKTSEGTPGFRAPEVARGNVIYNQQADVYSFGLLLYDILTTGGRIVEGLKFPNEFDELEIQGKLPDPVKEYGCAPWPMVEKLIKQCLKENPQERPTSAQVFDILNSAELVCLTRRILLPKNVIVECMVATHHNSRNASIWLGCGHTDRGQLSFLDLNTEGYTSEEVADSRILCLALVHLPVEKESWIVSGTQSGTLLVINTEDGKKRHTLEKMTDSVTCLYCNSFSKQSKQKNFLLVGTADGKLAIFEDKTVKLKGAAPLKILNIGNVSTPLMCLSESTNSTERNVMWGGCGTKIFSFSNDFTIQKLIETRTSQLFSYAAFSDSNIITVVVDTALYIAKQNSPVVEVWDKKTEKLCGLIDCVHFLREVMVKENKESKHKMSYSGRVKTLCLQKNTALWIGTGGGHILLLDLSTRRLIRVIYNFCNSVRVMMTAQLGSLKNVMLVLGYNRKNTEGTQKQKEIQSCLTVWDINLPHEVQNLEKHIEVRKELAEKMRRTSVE

| SMILES | IC50 [nM] |
| --- | --- |
| N#CC1(c2ccc3cnc(NC(=O)Cc4cccnc4)cc3c2)CC12CC2 (single isomer, unassigned) [Ex-1.41, (R or S)-N-(6-(1-cyanospiro[2.2]pentan-1-yl)isoquinolin-3-yl)-2-(pyridin-3-yl)acetamide] | 0.708 |
| CC1(C)CCC(C(=O)Nc2cc3cc(C4CCC(N5CCC(F)C5)CC4)c(Cl)cc3cn2)CO1 (single isomer, unassigned) [Ex-5.19, N-(7-chloro-6-(4-(3-fluoropyrrolidin-1-yl)cyclohexyl)isoquinolin-3-yl)-6,6-dimethyltetrahydro-2H-pyran-3-carboxamide] | 2.34 |
| CC1OCCC1N1CCC(c2cc3cc(NC(=O)C4CC4)ncc3cc2Cl)CC1 (single isomer, unassigned) [Ex-9.9, N-(7-chloro-6-(1-(2-methyltetrahydrofuran-3-yl)piperidin-4-yl)isoquinolin-3-yl)cyclopropanecarboxamide] | 5.62 |
| CC(C(=O)Nc1cc2cc(C3(C#N)CC34CC4)ccc2cn1)c1cnn(C)c1 (stereo not drawn) [Ex-2.108] | 2.95 |
| O=C(Nc1cc2cc(C3CCC(N4CC(F)C4)CC3)c(Cl)cc2cn1)C1CC1c1ccccn1 (single isomer, unassigned) [Ex-5.2, (1R,2R or 1S,2S)-N-(7-chloro-6-((cis or trans)-4-(3-fluoroazetidin-1-yl)cyclohexyl)isoquinolin-3-yl)-2-(pyridin-2-yl)cyclopropane-1-carboxamide] | 661 |
| O=C(Nc1cc2cc(C3CCN(C4COC4)CC3)c(Cl)cc2cn1)C1CC(OC(F)F)C1 (single isomer, unassigned) [Ex-2.4] | 14.1 |
| CC(C)(O)C1CC1C(=O)Nc1cc2cc(C3(C#N)CC34CC4)ccc2cn1 (stereo not drawn) [Ex-2.31] | 0.224 |

The next lines start with the values.

| IC50 [nM] | SMILES |
| --- | --- |
| 0.182 | CC1(N2CCC(c3cc4cc(NC(=O)C5C6CCCC65)ncc4cc3Cl)CC2)COCC1O (single isomer, unassigned) [Ex-1.20, N-(7-chloro-6-(1-((3R,4R or 3S,4S)-4-hydroxy-3-methyltetrahydrofuran-3-yl)piperidin-4-yl)isoquinolin-3-yl)bicyclo[3.1.0]hexane-6-carboxamide] |
| 0.676 | CC1(N2CCC(c3cc4cc(NC(=O)c5cnn(C67CC(C6)C7)c5)ncc4cc3Cl)CC2)COCC1F (single isomer, unassigned) [Ex-1.53, 1-(bicyclo[1.1.1]pentan-1-yl)-N-(7-chloro-6-(1-((3R,4R or 3S,4S)-4-fluoro-3-methyltetrahydrofuran-3-yl)piperidin-4-yl)isoquinolin-3-yl)-1H-pyrazole-4-carboxamide] |
| 47.9 | Cc1cc2cnc(NC(=O)C3CC34CCOCC4)cc2cc1C1CCN(C2(C)COCC2C)CC1 (single isomer, unassigned) [Ex-15.3, N-(6-(1-(3,4-dimethyltetrahydrofuran-3-yl)piperidin-4-yl)-7-methylisoquinolin-3-yl)-6-oxaspiro[2.5]octane-1-carboxamide] |
| 0.0813 | Cn1cc(C2CC2C(=O)Nc2cc3cc(C4CCN(C5(C)COCC5O)CC4)c(Cl)cc3cn2)cn1 (stereo not drawn) [Ex-2.37] |
| 0.0813 | Cc1cc2cnc(NC(=O)C3CC3c3ccn(C)n3)cc2cc1C1CCN(C2(C)COCC2F)CC1 (single isomer, unassigned) [Ex-16.1] |
| 7.94 | CCOC1CC2(C1)CC2C(=O)Nc1cc2cc(C3CCN(C4(C)COCC4O)CC3)c(Cl)cc2cn1 (single isomer, unassigned) [Ex-4.29, N-(7-chloro-6-(1-(4-hydroxy-3-methyltetrahydrofuran-3-yl)piperidin-4-yl)isoquinolin-3-yl)-5-ethoxyspiro[2.3]hexane-1-carboxamide] |
| 145 | CC1C(C(=O)Nc2cc3cc(C4CCN(C5(C)COCC5O)CC4)c(Cl)cc3cn2)C12CCOCC2 (single isomer, unassigned) [Ex-10.8, N-(7-chloro-6-(1-(4-hydroxy-3-methyltetrahydrofuran-3-yl)piperidin-4-yl)isoquinolin-3-yl)-2-methyl-6-oxaspiro[2.5]octane-1-carboxamide] |
| 0.0813 | CCC1C(C(=O)Nc2cc3cc(C4CCN(C5(C)COCC5F)CC4)c(Cl)cc3cn2)C1c1ccn(C)n1 (stereo not drawn) [Ex-2.86] |
